Data reported in patent publication US20250195475A1, “CDK2 INHIBITOR AND PREPARATION METHOD AND USE THEREOF” (INVENTISBIO CO., LTD., priority 2022, published 2025).

What follows are compounds tested against CDK2/CyclinE1 (Homo sapiens (Human), UniProt P24941) (assay: CDK2 kinase assay (TR-FRET)). Settings: CDK2/CyclinE1 0.5 nM, ATP 50 μM.
Format: biochemical
Description: The purpose of these assays is to evaluate the inhibition of small molecule inhibitors by using TR-FRET assay.
Compound Preparation. Dissslove the compounds into DMSO solution to make 10 mM DMSO stock. Serially dilute the stock solution from highest concentration down to lowest in DMSO to make the compound stock plate (100× stock plates). To make 5× compound intermediate plate, add 38 μL of assay buffer (50 mM HEPES, pH 7.5, 0.05 mg/mL BSA, 10 mM MgCl2, 1 mM EGTA, 0.01% Tween-20, 2 mM DTT) into each well of the V-bottom plate; then transfer 2 μL of the stock compound solution of each concentration from the compound stock plate (100× stock), and mix well.
Enzyme reaction. Transfer 2 μL compound from 5× intermediate plate into assay plate, then add 4 μL/well 2.5× Enzyme mix to assay plate, incubation for 10 min at room temperature. For positive control wells, add 4 μL/well assay buffer instead of Enzyme mix. Then add 4 μL/well 2.5× Substrate mix to assay plate, and incubation at 25° C. for 30 min at room temperature. After reaction, 10 μL 2× Detection mix (final 15 mM EDTA, 1× LANCE Detection Buffer, 0.5 nM Detection antibody) was added and incubated for 1 h prior to detection with excitation and emission at 320 and 665 nm (Tecan Spark® TR-FRET mode Tecan).
Inhibition rate (IR) of the tested compounds was determined by the following formula: IR (%)=(average High control−compound well)/(average High control−average Low control)*100%. Fit the compound IC50 from non-linear regression equation: Y=Bottom+(Top−Bottom)/(1+10^((Log IC50−X)*HillSlope)). X: Log of cpd concentration; Y: Inhibition rate (TR); Top and Bottom: Plateaus in same units as Y, log IC50: same log units as X; HillSlope: Slope factor or Hill slope.

Row | Structure (SMILES) | IC50
1 | Cn1nccc1C(=O)Nc1cc([C@H]2C[C@@H](OC(=O)NC3(C)CC3)CO2)[nH]n1 [Compound 94] | 1.3 nM
2 | CC(C)NC(=O)O[C@@H]1CC[C@H](c2cc(NC(=O)C3CCOCC3)n[nH]2)C1 [Compound 1] | 7.1 nM
3 | CC(C)NC(=O)OC1COC(c2cc(NC(=O)Cc3ccc(C(F)(F)F)cc3)n[nH]2)C1 (stereo not shown) [Compound 63] | 9.7 nM
4 | CC1(NC(=O)O[C@H]2CC[C@@H](c3cc(NC(=O)C4CC4C#N)n[nH]3)C2)CC1 (single isomer, unassigned) [Compound 196] | 0.4 nM
5 | C#CC1(NC(=O)O[C@@H]2CO[C@H](c3cc(NC(=O)c4ccnn4C)n[nH]3)C2)CCC1 [Compound 198] | 6.8 nM
6 | CC(C)NC(=O)O[C@@H]1CC[C@H](c2cc(NC(=O)C3CCCC3)n[nH]2)C1 [Compound 37] | 2.9 nM
7 | C#C[C@H]1C[C@@H]1C(=O)Nc1cc([C@@H]2C[C@H](OC(=O)NC(C)(C)C)CO2)[nH]n1 [Compound 167] | 1.4 nM
8 | COC[C@H]1C[C@@H]1C(=O)Nc1cc([C@H]2CC[C@@H](OC(=O)NC34CC(F)(C3)C4)C2)[nH]n1 [Compound 125] | 1.3 nM
9 | CC(C)NC(=O)O[C@@H]1CO[C@H](c2cc(NC(=O)Cc3cc(F)cc(C#N)c3)n[nH]2)C1 [Compound 116] | 4.5 nM
10 | CC(C)NC(=O)O[C@@H]1CO[C@H](c2cc(NC(=O)c3cc(C(F)F)nn3C)n[nH]2)C1 [Compound 112] | 13.4 nM
11 | CC(C)NC(=O)O[C@@H]1CC[C@H](c2cc(NC(=O)C3CC3C#N)n[nH]2)C1 (stereo partly shown) [Compound 87] | 3.6 nM
12 | C#C[C@H]1C[C@@H]1C(=O)Nc1cc([C@H]2C[C@@H](OC(=O)N[C@@H](C)CC)CO2)[nH]n1 [Compound 155] | 4.5 nM
13 | Cn1nccc1C(=O)Nc1cc([C@H]2C[C@@H](OC(=O)NC3(CF)CCC3)CO2)[nH]n1 [Compound 211] | 1.4 nM
14 | CC(C)NC(=O)O[C@@H]1CC[C@H](c2cc(Nc3nccc(-c4cnn(C)c4)n3)n[nH]2)C1 [Compound 11] | 40.7 nM
15 | COC[C@H]1CCN(C(=O)Nc2cc([C@H]3CC[C@@H](OC(=O)NC(C)C)C3)[nH]n2)C1 [Compound 123] | 265 nM
16 | CC(C)NC(=O)O[C@@H]1CO[C@H](c2cc(NC(=O)Cc3ccc4ncn(C)c4c3)n[nH]2)C1 [Compound 103] | 10.8 nM
17 | COCc1cc(C(=O)Nc2cc([C@H]3CC[C@@H](OC(=O)N[C@H]4C[C@@]5(CCOC5)C4)C3)[nH]n2)n(C)n1 [Compound 201] | 4.6 nM
18 | CC(C)NC(=O)OC1COC(c2cc(NC(=O)Cc3ccccc3C(F)(F)F)n[nH]2)C1 (stereo not shown) [Compound 65] | 97.3 nM
19 | CO[C@H]1C[C@H](C(=O)Nc2cc([C@H]3CC[C@@H](OC(=O)NC(C)C)C3)[nH]n2)C1 [Compound 68] | 8 nM
20 | CC(C)NC(=O)O[C@@H]1CC[C@H](c2cc(NC(=O)[C@H]3CCN(C(=O)c4cnn(C)c4)C3)n[nH]2)C1 [Compound 32] | 2.9 nM
21 | COCC1CC(C(=O)Nc2cc([C@H]3CC[C@@H](OC(=O)NC(C)C)C3)[nH]n2)C1 (single isomer, unassigned) [Compound 148] | 5.5 nM
22 | CC[C@H](C)NC(=O)O[C@@H]1CC[C@H](c2cc(NC(=O)C3CC3C#N)n[nH]2)C1 (single isomer, unassigned) [Compound 200] | 0.9 nM
23 | CC(C)NC(=O)O[C@@H]1CO[C@H](c2cc(NC(=O)Cc3ccccc3S(C)(=O)=O)n[nH]2)C1 [Compound 135] | 13.5 nM
24 | CC(C)NC(=O)O[C@@H]1CC[C@H](c2cc(NC(=O)C3CN(S(=O)(=O)C4CC4)CC3C)n[nH]2)C1 (stereo partly shown) [Compound 172] | 1.2 nM
25 | COC(C)[C@H]1C[C@@H]1C(=O)Nc1cc([C@H]2CC[C@@H](OC(=O)NC3(C)CC3)C2)[nH]n1 (single isomer, unassigned) [Compound 221] | 0.8 nM

Row | Structure (SMILES) | IC50
26 | Cc1c(C2CC2C(=O)Nc2cc([C@H]3CC[C@@H](OC(=O)NC4(C)CCC4)C3)[nH]n2)cnn1C (stereo partly shown) [Compound 217] | 29.7 nM
27 | Cn1nccc1C(=O)Nc1cc([C@H]2C[C@@H](OC(=O)NC(C)(C)C)CO2)[nH]n1 [Compound 101] | 1.5 nM
28 | CC(C)NC(=O)O[C@@H]1CC[C@H](c2cc(NC(=O)C3CN(S(C)(=O)=O)CC3C)n[nH]2)C1 (stereo partly shown) [Compound 75] | 11.5 nM
29 | Cn1nc(C2CC2)cc1C(=O)Nc1cc([C@H]2CC[C@@H](OC(=O)NC3COC4(CCC4)C3)C2)[nH]n1 (single isomer, unassigned) [Compound 47] | 64 nM
30 | CC(C)NC(=O)O[C@@H]1CO[C@H](c2cc(NC(=O)c3ccnn3CC(F)F)n[nH]2)C1 [Compound 93] | 5.2 nM
31 | C#C[C@H]1C[C@@H]1C(=O)Nc1cc([C@@H]2C[C@H](OC(=O)NC3(C)COC3)CO2)[nH]n1 [Compound 197] | 15.7 nM
32 | CC(C)NC(=O)O[C@@H]1CC[C@H](c2cc(NC(=O)C3CC3OCC(F)F)n[nH]2)C1 (stereo partly shown) [Compound 147] | 4.8 nM
33 | CC(C)NC(=O)O[C@@H]1CC[C@H](c2cc(NC(=O)[C@H]3CCCN(S(C)(=O)=O)C3)n[nH]2)C1 [Compound 76] | 22.7 nM
34 | COC[C@H]1C[C@@H]1C(=O)Nc1cc([C@H]2CC[C@@H](OC(=O)N[C@@H](C)C3CC3)C2)[nH]n1 [Compound 57] | 5.8 nM
35 | COCC1C[C@@H]1C(=O)Nc1cc([C@H]2CC[C@@H](OC(=O)NC(C)(C)C)C2)[nH]n1 (stereo partly shown) [Compound 85] | 2 nM
36 | CC1(NC(=O)OC2COC(c3cc(NC(=O)Cc4cc(F)cc(F)c4)n[nH]3)C2)CCOC1 (stereo not shown) [Compound 51] | 1.7 nM
37 | Cn1nccc1C(=O)Nc1cc([C@H]2C[C@@H](OC(=O)NC34CC(F)(C3)C4)CO2)[nH]n1 [Compound 159] | 1.6 nM
38 | C#C[C@H]1C[C@@H]1C(=O)Nc1cc([C@H]2C[C@@H](OC(=O)NC(C)(C)CC)CO2)[nH]n1 [Compound 168] | 0.6 nM
39 | CC(C)NC(=O)OC1COC(c2cc(NC(=O)c3ccccc3)n[nH]2)C1 (stereo not shown) [Compound 66] | 14.4 nM
40 | Cc1c([C@@H]2C[C@H]2C(=O)Nc2cc([C@H]3CC[C@@H](OC(=O)NC4(C)CCC4)C3)[nH]n2)cnn1C [Compound 218] | 0.6 nM
41 | CC1(NC(=O)O[C@@H]2CC[C@H](c3cc(NC(=O)C4CC4C#N)n[nH]3)C2)CC1 (single isomer, unassigned) [Compound 212] | 2.1 nM
42 | CC(C)NC(=O)O[C@@H]1CC[C@H](c2cc(NC(=O)[C@@H]3C[C@@H](C)N(S(C)(=O)=O)C3)n[nH]2)C1 [Compound 127] | 3.6 nM
43 | CC(C)NC(=O)O[C@@H]1CC[C@H](c2cc(NC(=O)[C@H]3CCN(S(C)(=O)=O)C3)n[nH]2)C1 [Compound 7] | 2.4 nM
44 | CC(C)NC(=O)O[C@@H]1CC[C@H](c2cc(NC(=O)C3CC3c3cnn(C)c3)n[nH]2)C1 (single isomer, unassigned) [Compound 209] | 29 nM
45 | CC(C)NC(=O)O[C@@H]1CC[C@H](c2cc(NC(=O)[C@H]3C[C@@H]3CC#N)n[nH]2)C1 [Compound 56] | 4 nM
46 | C#C[C@H]1C[C@@H]1C(=O)Nc1cc([C@@H]2CC[C@H](OC(=O)NC(C)C)C2)[nH]n1 [Compound 145] | 0.9 nM
47 | COC[C@H]1C[C@@H]1C(=O)Nc1cc([C@H]2CC[C@@H](OC(=O)NC34CC(C(F)F)(C3)C4)C2)[nH]n1 [Compound 142] | 1.6 nM
48 | CC(C)NC(=O)OC1COC(c2cc(NC(=O)c3ccnn3C)n[nH]2)C1 (stereo not shown) [Compound 26] | 3.7 nM
49 | CC1(NC(=O)OC2COC(c3cc(NC(=O)Cc4cc(F)cc(F)c4)n[nH]3)C2)CCOC1 (stereo not shown) [Compound 50] | 0.9 nM
